Assays:
[1] = molecular target: T1, human recombinant casein kinase 1ε (Homo sapiens, UniProt P49674); test: Casein kinase 1ε inhibition assay (Z'-LYTE Ser/Thr 11 Peptide); type: biochemical; details: 0.3 μg/ml compound, 0.5 μg/ml enzyme, 1.0 μM peptide, 20 μM ATP; 15 min pre-reaction, 2 hours; read-out: Casein kinase 1ε inhibitory rate
T1 construct: purchased INVITROGEN PV3500
Method: The activity of the present compound to inhibit casein kinase 1δ and casein kinase 1ε was measured using human recombinant casein kinase 1δ (INVITROGEN; Cat No. PV3665) or casein kinase 1ε (INVITROGEN; Cat No. PV3500) as an enzyme source, and using Z′-LYTE Ser/Thr 11 Peptide (INVITROGEN; Cat No. PV3671) as a phosphorylation substrate. The compositions (final concentrations) applied during the inhibitory activity measurement assays are as follows. […]
(§1) The present compound had previously been reacted with the enzyme at room temperature for 15 minutes. Two hours after completion of the reaction, the remaining phosphorylation activity was measured using Z′-LYTE Kinase Assay Kit-Ser/Thr 11 Peptide (INVITROGEN; Cat No. PV3670).
(§2) The inhibitory rate of the present compound was calculated with respect to the phosphorylation activity of each of casein kinase 1δ and casein kinase 1ε in a case in which no such compounds were added. Tables 1 to 4 show the inhibitory rate (%) of each compound.

[2] = molecular target: T2, human recombinant casein kinase 1δ (Homo sapiens, UniProt P48730); test: Casein kinase 1δ inhibition assay (Z'-LYTE Ser/Thr 11 Peptide); type: biochemical; details: 0.3 μg/ml compound, 3.0 μg/ml enzyme, 1.0 μM peptide, 20 μM ATP; 15 min pre-reaction, 2 hours; read-out: Casein kinase 1δ inhibitory rate
T2 construct: purchased INVITROGEN PV3665
Method: The activity of the present compound to inhibit casein kinase 1δ and casein kinase 1ε was measured using human recombinant casein kinase 1δ (INVITROGEN; Cat No. PV3665) or casein kinase 1ε (INVITROGEN; Cat No. PV3500) as an enzyme source, and using Z′-LYTE Ser/Thr 11 Peptide (INVITROGEN; Cat No. PV3671) as a phosphorylation substrate. The compositions (final concentrations) applied during the inhibitory activity measurement assays are as follows.
Assay of Casein Kinase 1δ
3.0 μg/ml casein kinase 1δ, 0.3 μg/ml the present compound, 1.0 μM peptide, 20 μM ATP, 50 mM HEPES (pH 7.4), 10 mM MgCl2, 0.01% Brij-35, and 0.5% DMSO
as §1, §2

[3] = system: N2A cells (N2A-APP695 cells); details: N2A-APP695 cells excessively expressing constitutively active casein kinase 1ε; cited from earlier work
[4] = system: human pancreatic cancer cell line; details: human pancreatic cancer cell line in vitro; cited from earlier work
[5] = system: human pancreatic cancer cell line transplanted into the subcutis of a mouse; details: cited from earlier work
rats = details: subcutaneous administration; cited from earlier work

T1 sequence (P49674 whole entry): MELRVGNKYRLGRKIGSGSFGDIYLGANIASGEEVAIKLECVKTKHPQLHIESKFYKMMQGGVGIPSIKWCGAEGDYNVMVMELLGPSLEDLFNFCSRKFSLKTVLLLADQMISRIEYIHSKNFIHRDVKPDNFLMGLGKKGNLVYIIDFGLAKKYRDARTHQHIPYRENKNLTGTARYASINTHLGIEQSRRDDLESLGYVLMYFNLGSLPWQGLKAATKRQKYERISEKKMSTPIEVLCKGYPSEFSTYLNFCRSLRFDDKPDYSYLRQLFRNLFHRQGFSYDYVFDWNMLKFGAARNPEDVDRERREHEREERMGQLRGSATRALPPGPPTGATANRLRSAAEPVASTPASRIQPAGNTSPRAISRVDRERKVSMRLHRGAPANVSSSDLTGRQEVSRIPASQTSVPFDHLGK
T2 sequence (P48730 whole entry): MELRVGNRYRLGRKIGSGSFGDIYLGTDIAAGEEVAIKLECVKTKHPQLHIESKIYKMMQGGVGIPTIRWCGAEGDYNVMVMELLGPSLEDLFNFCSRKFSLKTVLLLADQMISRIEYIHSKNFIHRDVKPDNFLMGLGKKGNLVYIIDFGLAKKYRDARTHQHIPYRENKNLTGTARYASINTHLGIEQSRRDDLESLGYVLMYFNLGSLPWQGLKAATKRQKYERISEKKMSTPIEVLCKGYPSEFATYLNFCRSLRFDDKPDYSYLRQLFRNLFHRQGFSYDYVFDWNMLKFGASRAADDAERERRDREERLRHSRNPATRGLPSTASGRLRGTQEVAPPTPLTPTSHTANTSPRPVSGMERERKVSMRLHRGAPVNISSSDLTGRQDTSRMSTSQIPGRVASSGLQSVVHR

inhibition at 0.3 µg/mL [1] | inhibition at 0.3 µg/mL [2] | Compound | other results
83.4% | 85% | O=C1OC(/C=C/c2ccccc2)=NC/1=C\c1cccnc1 [2-(2-phenylethenyl)-4-(3-pyridinylmethylene)-5(4H)-oxazolone] | 
94.4% | 85.9% | O=C1OC(c2cccs2)=N/C1=C\c1ccc([N+](=O)[O-])c(Br)c1 [4-((3-Bromo-4-nitrophenyl)methylene)-2-(2-thienyl)-5(4H)-oxazolone] | 
97.6% | 87.6% | O=C1OC(c2cccs2)=N/C1=C\c1ccc([N+](=O)[O-])c(Cl)c1 [4-((3-Chloro-4-nitrophenyl)methylene)-2-(2-thienyl)-5(4H)-oxazolone] | 
98.6% | 96.1% | COc1ccc(/C=C2\N=C(c3cccs3)OC2=O)cc1 [4-((4-methoxyphenyl)methylene)-2-(2-thienyl)-5(4H)-oxazolone] | 
97% | 74.3% | O=C1OC(c2cccs2)=N/C1=C\c1cc2c(cc1Cl)OCO2 [4-((6-Chloro-1,3-benzodioxol-5-yl)methylene)-2-(2-thienyl)-5(4R)-oxazolone] | 
96.6% | 91.1% | COc1cncc(/C=C2\N=C(c3cccs3)OC2=O)c1 [Example 2, 4-((5-Methoxy-3-pyridinyl)methylene)-2-(2-thienyl)-5(4H)-oxazolone] | 
93.8% | 60.5% | COc1cc(/C=C2\N=C(c3cccs3)OC2=O)ccn1 [Example 9, 4-((2-Methoxy-4-pyridinyl)methylene)-2-(2-thienyl)-5(4H)-oxazolone] | 
18.1% | 37% | Cn1cnc(/C=C2\N=C(c3cccs3)OC2=O)c1 [Example 10, 4-((1-Methyl-1H-imidazol-yl)methylene)-2-(2-thienyl)-5(4H)-oxazolone] | 
52.5% | 76.1% | COc1ccc(/C=C2\N=C(c3cccs3)OC2=O)c(Cl)n1 [Example 19, 4-((2-Chloro-6-methoxy-3-pyridinyl)methylene)-2-(2-thienyl)-5(4H)-oxazolone] | 

The remaining lines, values behind:

Compound | inhibition at 0.3 µg/mL [1] | inhibition at 0.3 µg/mL [2] | other results
COc1ccc(C2=N/C(=C\c3cccnc3)C(=O)O2)cc1Br [2-(3-Bromo-4-methoxyphenyl)-4-(3-pyridinylmethylene)-5-(4H)-oxazolone] | 99.4% | 94.2% | 
Cc1cc(C2=N/C(=C\c3cccnc3)C(=O)O2)ccc1Br [2-(4-Bromo-3-methylphenyl)-4-(3-pyridinylmethylene)-5(4H)-oxazolone] | 97.8% | 83.2% | 
Cn1cc(/C=C2\N=C(c3cccs3)OC2=O)cn1 [4-((1-Methyl-1H-pyrazol-4-yl)methylene)-2-(2-thienyl)-5(4H)-oxazolone] | 48.8% | 73.6% | 
COc1ccc(/C=C2\N=C(c3cccs3)OC2=O)cc1[N+](=O)[O-] [4-((4-Methoxy-3-nitrophenyl)methylene)-2-(2-thienyl)-5(4H)-oxazolone] | 94.8% | 91% | 
O=C1OC(c2cccs2)=N/C1=C\c1cc(Cl)c2c(c1)OCCO2 [4-((8-Chloro-2,3-dihydro-1,4-benzodioxin-6-yl)methylene)-2-(2-thienyl)-5(4H)-oxazolone] | 85.8% | 76.7% | 
COc1cncc(/C=C2\N=C(c3ccc(C)s3)OC2=O)c1 [Example 1, 4-((5-Methoxy-3-pyridinyl)methylene)-2-(5-methyl-2-thienyl)-5(4H)-oxazolone] | 97.1% | 82% | 
O=C1OC(c2cccs2)=N/C1=C\c1cncc(F)c1 [Example 3, 4-((5-Fluoro-3-pyridinyl)methylene)-2-(2-thienyl)-5(4H)-oxazolone] | 92.1% | 87.4% | 
O=C1OC(c2cccs2)=N/C1=C\c1cccnc1F [Example 4, 4-((2-Fluoro-3-pyridinyl)methylene)-2-(2-thienyl)-5(4H)-oxazolone] | 39.2% | 65.6% | 
COc1ccc(/C=C2\N=C(c3cccs3)OC2=O)cn1 [Example 5, 4-((6-Methoxy-3-pyridinyl)methylene)-2-(2-thienyl)-5(4H)-oxazolone] | 95.6% | 86.3% | 
COCc1ccc(/C=C2\N=C(c3cccs3)OC2=O)o1 [Example 12, 4-((5-Methoxymethyl-2-furanyl)methylene)-2-(2-thienyl)-5(4H)-oxazolone] | 9% | 29% | 
O=C1OC(c2cccs2)=N/C1=C\c1cocn1 [Example 13, 4-((4-Oxazoyl)methylene)-2-(2-thienyl)-5(4H)-oxazolone] | 32% | 67.9% | 
O=C1OC(c2cccs2)=N/C1=C\c1csnn1 [Example 14, 4-((1,2,3-Thiadiazol-4-yl)methylene)-2-(2-thienyl)-5(4H)-oxazolone] | 19.2% | 32.2% | 
COc1ccc(/C=C2\N=C(c3cccs3)OC2=O)c(C)n1 [Example 18, 4-((6-Methoxy-2-methyl-3-pyridinyl)methylene)-2-(2-thienyl)-5(4H)-oxazolone] | 32.8% | 55.3% | 
COc1cc(OC)c(C=C2C(O)=Nc3ccccc32)c(OC)c1 [IC261] |  |  | amount of Aβ40 [3]: decreased; amount of Aβ42 [3]: decreased; cell growth [4]: suppression of the cell growth was observed; growth of tumor cells [5]: significant effect of suppressing the growth of tumor cells
COC(=O)c1ccc(/C=C2\N=C(c3cccs3)OC2=O)cc1 [Methyl 4-((5-oxo-2-(2-thienyl)oxazol-4(5H)-ylidene)methyl) benzoate] | 95.1% | 86.8% | 
Nc1nccc(-c2c(-c3ccc(F)cc3)ncn2C2CCCCC2)n1 [PF-670462, 4-[3-cyclohexyl-5-(4-fluoro-phenyl)-3H-imidazol-4-yl]-pyrimidin-2-ylamine] |  |  | phase of circadian rhythm (rats): significantly delayed
Nc1ccn([C@@H]2O[C@H](CO)[C@@H](O)C2(F)F)c(=O)n1 [gemcitabine] |  |  | growth of tumor cells [5]: significant effect of suppressing the growth of tumor cells
